Measurements taken from patent US12564584B2, “Amorphous cabozantinib particles and uses thereof” (Flex Pharma, LLC, priority 2020, dated 2026).

Tests used:
[1] = Assay by HPLC (corrected for water content); format: physicochemical
Description: (§1) Total related substances was determined by HPLC using a Waters Acquity H-Class UPLC instrument utilizing a Waters Acquity BEH C18, 2.1×50 mm, 1.7 μm column. Sample solutions of each ASD were prepared by accurately weighing ASD powder into a volumetric flask, and diluted in 1:1:1 methanol:ethanol:water. The final concentration of the analyte (cabozantinib) in the sample was approximately 0.2 mg/ml.
(§2) Assay values and total related substances were determined for the ASDs after preparation (t=0) and at the designated stability timepoints using an appropriate HPLC method (as described in Example 1). The reported assay values have been corrected for water content (determined by Karl Fischer coulometric titration method).

[2] = Water content by Karl Fischer coulometric titration; format: physicochemical; settings: after preparation
Description: Water content was determined by Karl Fischer coulometric titration method, using a Mettler Toledo C30S Karl Fischer with Stromboli Oven Sampler. Approximately 40-50 mg of ASD powder was weighed into a glass Stromboli sample vial and the vial was immediately sealed with a foil coated vial cover, and a rubber vial cap cover was placed on top of the sample vial. The vial was then placed onto instrument and analysis was conducted using nitrogen carrier gas. Instrument details and measurement conditions are specified in Table 4.

[3] = cited from earlier work
[4] = Total related substances by HPLC; format: physicochemical
Description: as §1
Individual related substances were calculated as peak area percent. Total related substances is calculated as the sum of all detected individual related substances.
as §2

[5] = test system: MET, VEGFR-1, -2 and -3, AXL, RET, ROS1, TYRO3, MER, KIT, TRKB, FLT-3, and TIE-2; settings: FLT-3, TIE-2; cited from earlier work
[6] = cited from earlier work; remark: listed apart in the source

Compound | Assay ([1]; 40° C./protected, 1 month) | Assay ([1]; 40° C./protected, 2 months) | Assay ([1]; 40° C./protected, 3 months) | Assay ([1]; t = 0) | Water Content (% water) [2] | protein bound in human plasma [3] | Total Related Substances ([4]; 40° C./protected, 1 month) | Total Related Substances ([4]; 40° C./protected, 2 months) | Total Related Substances ([4]; 40° C./protected, 3 months) | Total Related Substances (% Area) ([4]; after preparation) | Total Related Substances ([4]; t = 0) | inhibition of tyrosine kinase activity [5] | solubility in aqueous media [6]
COc1cc2nccc(Oc3ccc(NC(=O)C4(C(=O)Nc5ccc(F)cc5)CC4)cc3)c2cc1OC.O=C(O)C[C@H](O)C(=O)O [Cabozantinib (free base), N-(4-(6,7-dimethoxyquinolin-4-yloxy)phenyl)-N′-(4-fluorophenyl)cyclopropane-1,1-dicarboxamide, (2S)-hydroxybutanedioate] | 99.9% | 99.6% | 99.0% | 99.2% | 0.75 % water | ≥ 99.7% | 0.52% | 0.44% | 0.38% | 0.44 % Area | 0.44% | inhibits | 
COc1cc2nccc(Oc3ccc(NC(=O)C4(C(=O)Nc5ccc(F)cc5)CC4)cc3)c2cc1OC.O=C(O)C[C@H](O)C(=O)O [Cabozantinib (S)-malate salt] |  |  |  |  |  |  |  |  |  |  |  |  | practically insoluble
